Measured values reported in ChEMBL document CHEMBL4483862, “Open-source discovery of chemical leads for next-generation chemoprotective antimalarials” (2018).

Test system: Plasmodium berghei
Test: Luciferase/luciferin-expressing antifolate-resistant parasites were used to infect a culture of HepG2 cells that were pre-incubated with compounds. Infected hepatocytes emit light due to the luciferase reaction. Assay results are presented as the percent inhibition of light emission compared to control. […]
Assay type: functional
Details: sporozoite; for IC90: read-out: LUCIFERASE INFECTION ASSAY - IC90
[1] = read-out: LUCIFERASE INFECTION ASSAY - IC50

SMILES	IC50 [1]	IC90	also measured
O=C(Nc1cccc(NC(=O)c2cc(C3CC3)nc3c2nc2n3CCCCC2)c1)c1ccco1	> 10 µM	> 10 µM	–
CCN(CC)S(=O)(=O)c1cccc(C(=O)N/N=C(\C)c2cc(Cl)ccc2Cl)c1	–	> 10 µM	IC50 (PBLUC_HILL_SLOPE 2.08, PBLUC_R_SQUARED 0.0166, read-out: LUCIFERASE INFECTION ASSAY - IC50): 7.74 µM
COc1cc2c(cc1NC(=O)c1cccc(F)c1)CCCC2	4.59 µM	> 11 µM	–
Cc1cc(C)nc(-n2nc(Nc3ccccc3)cc2Nc2ccccc2)n1	–	> 10 µM	IC50 (FFLUC_HILL_SLOPE 18.6, FFLUC_R_SQUARED 0.489, PBLUC_HILL_SLOPE 15, PBLUC_R_SQUARED 0.577, read-out: LUCIFERASE INFECTION ASSAY - IC50): 9.07 µM
CN(C)CCNC(=O)c1cccc(-c2cnc3ccc(-c4cccc(F)c4)nn23)c1	–	9.29 µM	IC50 (PBLUC_HILL_SLOPE 5.28, PBLUC_R_SQUARED 0.0552, read-out: LUCIFERASE INFECTION ASSAY - IC50): 6.13 µM
COc1ccccc1N(C)S(=O)(=O)c1ccc(C(=O)NNC(=O)c2nn(C)c(=O)c3ccccc23)cc1	–	> 10 µM	IC50 (HEPG2TOX_HILL_SLOPE 7.89, HEPG2TOX_R_SQUARED 0.384, read-out: LUCIFERASE INFECTION ASSAY - IC50): > 10 µM
CCn1c(C)nc2cc(C(=O)NNC(=O)/C=C/c3cccc(C(F)(F)F)c3)ccc21	> 10 µM	> 10 µM	–
COc1ccc(Cl)c(Nc2nc(-c3c(-c4ccc(Cl)cc4Cl)noc3C)cs2)c1	–	> 7.07 µM	IC50 (HEPG2TOX_HILL_SLOPE 6.31, HEPG2TOX_R_SQUARED 0.301, PBLUC_HILL_SLOPE 9.51, PBLUC_R_SQUARED 0.295, read-out: LUCIFERASE INFECTION ASSAY - IC50): 6.34 µM
CCCn1c(N)c(C(=O)CSc2nnc(-c3ccccc3)c(-c3ccccc3)n2)c(=O)n(C)c1=O	> 10 µM	> 10 µM	–
COc1cc(-c2cc(-c3cc4ccccc4s3)cnc2N)cc(OC)c1OC	–	> 8.41 µM	IC50 (HEPG2TOX_HILL_SLOPE 0.717, HEPG2TOX_R_SQUARED 0.312, PBLUC_HILL_SLOPE 43.5, PBLUC_R_SQUARED 0.0859, read-out: LUCIFERASE INFECTION ASSAY - IC50): 8.37 µM
Cc1ccc2nc(NC(=O)c3cc(F)c(F)cc3F)c(C(=O)NC3CCCC3)n2c1	–	2.75 µM	IC50 (HEPG2TOX_HILL_SLOPE 1.15, HEPG2TOX_R_SQUARED 0.906, PBLUC_HILL_SLOPE 3.53, PBLUC_R_SQUARED 0.394, read-out: LUCIFERASE INFECTION ASSAY - IC50): 1.47 µM
CC1CC(NC(=S)NCc2csc3ccccc23)CC(C)(C)C1 (stereo unspecified)	–	> 9.52 µM	IC50 (PBLUC_HILL_SLOPE 0.667, PBLUC_R_SQUARED 0.384, read-out: LUCIFERASE INFECTION ASSAY - IC50): > 9.52 µM
Cc1nn(-c2cccc(Cl)c2)c2nc(-c3ccccc3)c(-c3nc4ccccc4s3)c(-c3cccnc3)c12	–	> 10 µM	IC50 (HEPG2TOX_HILL_SLOPE 11.2, HEPG2TOX_R_SQUARED 0.958, read-out: LUCIFERASE INFECTION ASSAY - IC50): > 10 µM
COc1ccc(-c2cc(-c3nnc4n3CCCCC4)c3c(C)nn(-c4ccccc4)c3n2)cc1	–	> 10 µM	IC50 (PBLUC_HILL_SLOPE 3.73, PBLUC_R_SQUARED 0.529, read-out: LUCIFERASE INFECTION ASSAY - IC50): 5.69 µM
CNc1nc(NCc2ccc(C)cc2C)c2sccc2n1	> 11.1 µM	> 11.1 µM	–
c1cc(CNc2ncnc3nc[nH]c23)cc(COCc2ccco2)c1	–	> 10 µM	IC50 (HEPG2TOX_HILL_SLOPE 6.82, HEPG2TOX_R_SQUARED 0.307, PBLUC_HILL_SLOPE 1.97, PBLUC_R_SQUARED 0.21, read-out: LUCIFERASE INFECTION ASSAY - IC50): 6.9 µM
N=C1N/C(=N/NC(=O)c2ccc(CN3C(=O)c4cccc5cccc3c45)cc2)c2ccccc21	–	> 10 µM	IC50 (HEPG2TOX_HILL_SLOPE 8, HEPG2TOX_R_SQUARED 0.371, PBLUC_HILL_SLOPE 2.14, PBLUC_R_SQUARED 0.479, read-out: LUCIFERASE INFECTION ASSAY - IC50): 4.48 µM
Cc1oc(-c2ccc(Cl)cc2)cc1C(=O)Nc1cccc(C(F)(F)F)c1	> 8.69 µM	> 8.69 µM	–
COc1ccc2c3c(cccc13)C(=O)N(c1nc3ccccc3n1C)C2=O	> 9.23 µM	> 9.23 µM	–
Cc1cc(-c2nc(=O)c3ccccc3[nH]2)c(C)n1CC(C)C	–	4.1 µM	IC50 (PBLUC_HILL_SLOPE 3.39, PBLUC_R_SQUARED 0.354, read-out: LUCIFERASE INFECTION ASSAY - IC50): 2.15 µM
CN(C)CCCOc1ccc(-c2nnc3ccc(-c4cccc(OC(F)(F)F)c4)cn23)cc1	–	> 10 µM	IC50 (PBLUC_HILL_SLOPE 3.54, PBLUC_R_SQUARED 0.437, read-out: LUCIFERASE INFECTION ASSAY - IC50): 7.74 µM
Cn1c(-c2c(-c3ccccc3)n[nH]c2-c2ccccc2O)nc2ccccc21	–	> 10 µM	IC50 (FFLUC_HILL_SLOPE 1.64, FFLUC_R_SQUARED 0.277, read-out: LUCIFERASE INFECTION ASSAY - IC50): > 10 µM

SMILES	IC50 [1]	IC90	also measured
COc1ccc(Cc2nnc(S)n2NC(=O)Nc2ccc(Cl)c(Cl)c2)cc1	> 10 µM	> 10 µM	–
CCOC(=O)C1=C(CSc2nc3ccccc3c(=O)n2-c2ccc(OC(F)F)cc2)NC(=O)NC1C (stereo unspecified)	–	> 10 µM	IC50 (HEPG2TOX_HILL_SLOPE 1.17, HEPG2TOX_R_SQUARED 0.429, PBLUC_HILL_SLOPE 8.23, PBLUC_R_SQUARED 0.327, read-out: LUCIFERASE INFECTION ASSAY - IC50): 8.35 µM
CC(=O)NCCc1ccc(C(=O)COC(=O)c2cc(C(C)C)cc(C(C)C)c2O)s1	> 10 µM	> 10 µM	–
O=C(Nc1cccc(C(F)(F)F)c1)Nc1cnn(-c2ccc(Cl)cc2)c1C(F)(F)F	–	> 7.35 µM	IC50 (PBLUC_HILL_SLOPE 0.579, PBLUC_R_SQUARED 0.471, read-out: LUCIFERASE INFECTION ASSAY - IC50): 1.04 µM
Cc1ccccc1NC(=O)Nc1nc(C(N)COCc2ccccc2)cs1 (stereo unspecified)	–	> 8.63 µM	IC50 (HEPG2TOX_HILL_SLOPE 7.21, HEPG2TOX_R_SQUARED 0.623, PBLUC_HILL_SLOPE 21.4, PBLUC_R_SQUARED 0.0439, read-out: LUCIFERASE INFECTION ASSAY - IC50): 7.8 µM
CCCCSc1scc(-c2ccc(Cl)c(Cl)c2)c1C#N	–	> 9.64 µM	IC50 (HEPG2TOX_HILL_SLOPE 94.8, HEPG2TOX_R_SQUARED 0.896, read-out: LUCIFERASE INFECTION ASSAY - IC50): > 9.64 µM
Cc1cc(C(=O)CSC(c2ccccc2)c2ccccc2)c(C)n1C	> 10 µM	> 10 µM	–
CSc1sc(C(=O)Nc2ccc(F)c(Cl)c2)c(-c2ccc(Cl)cc2)c1C#N	–	> 7.55 µM	IC50 (FFLUC_HILL_SLOPE 1.91, FFLUC_R_SQUARED 0.467, read-out: LUCIFERASE INFECTION ASSAY - IC50): > 7.55 µM
N#CC(/N=C\c1ccc(Cl)cc1)=C(\C#N)NC(=O)Nc1ccc(OC(F)(F)F)cc1	–	2.75 µM	IC50 (HEPG2TOX_HILL_SLOPE 2.54, HEPG2TOX_R_SQUARED 0.983, PBLUC_HILL_SLOPE 13.2, PBLUC_R_SQUARED 0.605, read-out: LUCIFERASE INFECTION ASSAY - IC50): 2.33 µM
Cc1c(/C=N/NC(=O)c2ccccc2)c(Cl)n(C)c(=O)c1C#N	> 10 µM	> 10 µM	–
N#Cc1ccc(CNC(=S)Nc2ccc(Cl)c(Cl)c2)cc1	–	9.71 µM	IC50 (HEPG2TOX_HILL_SLOPE 2.37, HEPG2TOX_R_SQUARED 0.471, PBLUC_HILL_SLOPE 2.37, PBLUC_R_SQUARED 0.613, read-out: LUCIFERASE INFECTION ASSAY - IC50): 3.85 µM
Cc1ccc(-c2nc3nc(N)n(C)c(=O)c3[nH]c2=O)cc1	> 10 µM	> 10 µM	–
Cc1cc(C(=O)Cn2nnc3ccccc3c2=O)c(C)n1-c1ccccc1	–	0.0451 µM	IC50 (HEPG2TOX_HILL_SLOPE 3.03, HEPG2TOX_R_SQUARED 0.216, PBLUC_HILL_SLOPE 10.9, PBLUC_R_SQUARED 0.324, read-out: LUCIFERASE INFECTION ASSAY - IC50): 0.0369 µM
OC(COc1ccc2cc(Br)ccc2c1)CN1CCCC1 (stereo unspecified)	–	> 9.42 µM	IC50 (FFLUC_HILL_SLOPE 1.55, FFLUC_R_SQUARED 0.115, PBLUC_HILL_SLOPE 1.17, PBLUC_R_SQUARED 0.42, read-out: LUCIFERASE INFECTION ASSAY - IC50): 4.73 µM
CC(CCc1ccccc1)NC(=O)Cn1c(=O)c(=O)n(Cc2ccccc2)c2ccc(Cl)cc21 (stereo unspecified)	–	> 10 µM	IC50 (FFLUC_HILL_SLOPE 12.6, FFLUC_R_SQUARED 0.716, read-out: LUCIFERASE INFECTION ASSAY - IC50): > 10 µM
Cc1cc(C(=O)CSc2nc3ccccc3[nH]2)c(C)n1CC1CCCO1 (stereo unspecified)	–	4.43 µM	IC50 (HEPG2TOX_HILL_SLOPE 3.03, HEPG2TOX_R_SQUARED 0.337, PBLUC_HILL_SLOPE 0.528, 1.10, PBLUC_R_SQUARED 0.856, 0.809, read-out: LUCIFERASE INFECTION ASSAY - IC50): 0.144 µM
N#Cc1ccccc1NC(=O)CSc1nc2scc(-c3ccccc3Cl)c2c(=O)n1CCc1ccccc1	–	9.03 µM	IC50 (FFLUC_HILL_SLOPE 9.25, FFLUC_R_SQUARED 0.857, PBLUC_HILL_SLOPE 5.48, PBLUC_R_SQUARED 0.817, read-out: LUCIFERASE INFECTION ASSAY - IC50): 6.05 µM
NC(=O)c1cc(-c2ccccc2)sc1NC(=O)Nc1ccccc1F	9.4 µM	> 10 µM	–
N#CCc1c(C#N)c(N)nc(Nc2ccc(F)cc2F)c1C#N	3.64 µM	6.78 µM	–
Cc1ccn2cc(C(=O)Nc3nnc(CC(C)C)s3)nc2c1	–	3.7 µM	IC50 (HEPG2TOX_HILL_SLOPE 9.95, HEPG2TOX_R_SQUARED 0.674, PBLUC_HILL_SLOPE 11.8, PBLUC_R_SQUARED 0.71, read-out: LUCIFERASE INFECTION ASSAY - IC50): 3.07 µM
CCC1(c2ccc(F)cc2)NC(=O)N(CC(=O)Nc2ccc(-c3nc4ccc(C)cc4s3)cc2)C1=O (stereo unspecified)	9.87 µM	> 10 µM	–
